Data on 21 molecules can be found in US8501794B2, “Compounds as cannabinoid receptor ligands” (priority 2007, dated 2013).

Experiment [1] addresses T1, rat CB2 (Rattus norvegicus, UniProt Q9QZN9).
T1 sequence (Q9QZN9 1-360): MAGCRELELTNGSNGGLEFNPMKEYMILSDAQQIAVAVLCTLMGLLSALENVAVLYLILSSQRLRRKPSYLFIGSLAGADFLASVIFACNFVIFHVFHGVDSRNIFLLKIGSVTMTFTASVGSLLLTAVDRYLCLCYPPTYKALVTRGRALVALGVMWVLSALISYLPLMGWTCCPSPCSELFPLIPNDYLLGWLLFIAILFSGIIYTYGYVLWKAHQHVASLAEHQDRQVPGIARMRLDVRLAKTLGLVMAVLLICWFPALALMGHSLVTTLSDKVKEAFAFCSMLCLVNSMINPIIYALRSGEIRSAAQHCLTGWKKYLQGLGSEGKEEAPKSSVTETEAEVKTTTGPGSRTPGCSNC
In words: rat CB2 radioligand binding assay ([3H]CP-55,940 competition). Further details: expressed in transfected cells; host or cells: HEK293.

The target in experiment [2] is T1, rat CB2. The experiment in a line: rat CB2 cyclase functional assay (HitHunter cAMP, HEK cells). Type of experiment: cell-based. Further details: expressed in transfected cells; host or cells: HEK. Particulars: forskolin 18 μM.
The target in experiment [3] is T2, human CB2 receptors (Homo sapiens, UniProt P34972).
T2 construct: expressed in transfected cells; host or cells: HEK293
T2 sequence (P34972 whole entry): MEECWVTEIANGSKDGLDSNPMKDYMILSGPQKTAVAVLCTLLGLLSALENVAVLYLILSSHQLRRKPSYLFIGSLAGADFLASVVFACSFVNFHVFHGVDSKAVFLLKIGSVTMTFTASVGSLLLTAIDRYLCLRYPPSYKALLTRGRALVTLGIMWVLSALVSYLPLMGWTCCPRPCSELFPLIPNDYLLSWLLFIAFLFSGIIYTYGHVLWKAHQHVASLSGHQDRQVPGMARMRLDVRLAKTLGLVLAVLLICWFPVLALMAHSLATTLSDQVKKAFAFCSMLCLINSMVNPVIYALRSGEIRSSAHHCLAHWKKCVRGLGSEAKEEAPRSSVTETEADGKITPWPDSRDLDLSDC
The experiment in a line: human CB2 radioligand binding assay ([3H]CP-55,940 competition).

Take `CCCCc1cn(C(C)(C)C)s/c1=N\C(=O)c1cc(S(C)(=O)=O)ccc1OC` [Example 48, N-[(5Z)-4-butyl-2-tert-butylisothiazol-5(2H)-ylidene]-2-methoxy-5-(methylsulfonyl)benzamide]: the Ki in experiment [1] amounted to 22 nM. For the same molecule, it took 0.56 nM to reach a half-maximal effect in experiment [2] (EC50).

With `CCCCc1cn(C(C)(C)C)s/c1=N\C(=O)c1cc(/C(C)=N\O)ccc1OC` [Example 68, N-[(5Z)-4-butyl-2-tert-butylisothiazol-5(2H)-ylidene]-5-[(1Z)-N-hydroxyethanimidoy1]-2-methoxybenzamide], the results for the Ki in experiment [1] and in experiment [3] were 8.3 nM and 59 nM, respectively. The molecule further gave an EC50 in experiment [2] of 0.022 nM.

For `COc1ccc(Cl)cc1C(=O)/N=c1\sn(C(C)(C)C)cc1CCCC#N` [Example 30, N-[(5Z)-2-tert-butyl-4-(3-cyanopropyl)isothiazol-5(2H)-ylidene]-5-chloro-2-methoxybenzamide], the inhibition constant (Ki) was 2.6 nM in experiment [1] and 17 nM in experiment [3]. This molecule also returned an EC50 in experiment [2] of 0.2 nM.

Turning to `COc1ccc(Cl)cc1C(=O)/N=c1\sn(C(C)(C)C)cc1CC1CC(C)=NO1` (stereo not shown) [Example 7], the Ki is 8.8 nM in experiment [1] and 370 nM in experiment [3]. The same molecule returned an EC50 in experiment [2] of 2.7 nM.

With `COc1ccc(Cl)cc1C(=O)/N=c1\sn(C(C)(C)C)cc1CC(C)C` [Example 37, N-[(5Z)-2-tert-butyl-4-isobutylisothiazol-5(2H)-ylidene]-5-chloro-2-methoxybenzamide], the values for the Ki in experiment [1] and in experiment [3] were 5.8 nM and 31 nM, respectively. In experiment [2], this molecule returned an EC50 of 1.3 nM.

For `CCCCc1cn(C(C)(C)C)s/c1=N\C(=O)c1cc(C=NO)ccc1OC` [Example 59, N-[(5Z)-4-butyl-2-tert-butylisothiazol-5(2H)-ylidene]-5-[(hydroxyimino)methyl]-2-methoxybenzamide], the Ki amounted to 3.3 nM in experiment [1] and 54 nM in experiment [3]. This molecule registered an EC50 in experiment [2] of 0.12 nM.

For `COc1ccc(Cl)cc1C(=O)/N=c1\sn(C(C)(C)C)cc1CCC(C)(C)F` [Example 87, N-[(5Z)-2-tert-butyl-4-(3-fluoro-3-methylbutyl)isothiazol-5(2H)-ylidene]-5-chloro-2-methoxybenzamide], the inhibitory constant (Ki) in experiment [1] worked out at 0.74 nM; in experiment [3], 12 nM. This molecule also had an EC50 in experiment [2] of 0.15 nM.

On to `COc1ccc(Cl)cc1C(=O)/N=c1\sn(C(C)(C)C)cc1Cc1ccco1` [Example 50, N-[(5Z)-2-tert-butyl-4-(2-furylmethyl)isothiazol-5(2H)-ylidene]-5-chloro-2-methoxybenzamide], for which the Ki stood at 2.5 nM in experiment [1] and 19 nM in experiment [3]. The same molecule had an EC50 in experiment [2] of 0.13 nM.

In the case of `COc1ccc(Cl)cc1C(=O)/N=c1\sn(C(C)(C)C)cc1CCCC(C)(F)F` [Example 86, N-[(5Z)-2-tert-butyl-4-(4,4-difluoropentyl)isothiazol-5(2H)-ylidene]-5-chloro-2-methoxybenzamide], the Ki in experiment [1] was 0.64 nM; in experiment [3], 4.4 nM. Also, the EC50 in experiment [2] came out at 0.12 nM.

Turning to `CCCCc1cn(C(C)(C)C)s/c1=N\S(=O)(=O)c1cccc(Cl)c1Cl` [Example 122, N-[(5Z)-4-butyl-2-tert-butylisothiazol-5(2H)-ylidene]-2,3-dichlorobenzenesulfonamide], the Ki in experiment [1] is 11 nM; in experiment [3], 18 nM. The same molecule registered a half-maximal effective concentration (EC50) in experiment [2] of 1.9 nM.

Turning to `COc1ccc(Cl)cc1C(=O)/N=c1\sn(C(C)(C)C)cc1CC1CCC1` [Example 38, N-[(5Z)-2-tert-butyl-4-(cyclobutylmethyl)isothiazol-5(2H)-ylidene]-5-chloro-2-methoxybenzamide], the results for the Ki in experiment [1] and in experiment [3] were 0.61 nM and 2.5 nM, respectively. Further, in experiment [2], the half-maximal effective concentration (EC50) stood at 1.7 nM.

In the case of `CCCCc1cn(C(C)(C)C)s/c1=N\C(=O)[C@@H]1CC[C@](C)(C(=O)NC)C1(C)C` [Example 209, (1S,3R)—N^3-[(5Z)-4-butyl-2-tert-butylisothiazol-5(2H)-ylidene]-N^1,1,2,2-tetramethylcyclopentane-1,3-dicarboxamide], the figures for the Ki in experiment [1] and in experiment [3] were 7.3 nM and 12 nM, respectively. In addition, the EC50 in experiment [2] came out at 0.44 nM.

For `COc1ccc(C(F)(F)F)cc1C(=O)/N=c1\sn(C(C)(C)C)cc1CCCC(C)(C)O` [Example 81, N-[(5Z)-2-tert-butyl-4-(4-hydroxy-4-methylpentyl)isothiazol-5(2H)-ylidene]-2-methoxy-5-(trifluoromethyl)benzamide], the values for the Ki in experiment [1] and in experiment [3] were 2.6 nM and 45 nM, respectively. Besides, the EC50 in experiment [2] was 0.061 nM.

As for `COc1ccc(Cl)cc1C(=O)/N=c1\sn(C(C)(C)C)cc1COCC(F)F` [Example 91, N-[(5Z)-2-tert-butyl-4-[(2,2-difluoroethoxy)methyl]isothiazol-5(2H)-ylidene]-5-chloro-2-methoxybenzamide], the Ki in experiment [1] is 12 nM; in experiment [3], 45 nM. In addition, the 50% effective concentration (EC50) in experiment [2] worked out at 0.1 nM.

Regarding `CCCCc1cn(C(C)(C)C)s/c1=N\C(=O)c1cc(C)ccc1OC` [Example 43, N-[(5Z)-4-butyl-2-tert-butylisothiazol-5(2H)-ylidene]-2-methoxy-5-methylbenzamide], the Ki in experiment [1] stood at 2.6 nM; in experiment [3] it was 18 nM. Besides, a half-maximal response in experiment [2] (EC50) required 0.23 nM.

`CCCCc1cn(C(C)(C)C)s/c1=N\C(=O)c1cc(OC)ccc1OC` [Example 41, N-[(5Z)-4-butyl-2-tert-butylisothiazol-5(2H)-ylidene]-2,5-dimethoxybenzamide]: the Ki in experiment [1] amounted to 6.3 nM; in experiment [3], 45 nM. In experiment [2], this molecule came in with an EC50 of 0.21 nM.

Turning to `CC(C)(C)n1cc(CCCC#N)/c(=N/C(=O)c2cc(Cl)ccc2OCC(N)=O)s1` [Example 141, 2-(2-amino-2-oxoethoxy)-N-[(5Z)-2-tert-butyl-4-(3-cyanopropyl)isothiazol-5(2H)-ylidene]-5-chlorobenzamide], the Ki came out at 15 nM in experiment [1] and 56 nM in experiment [3]. A half-maximal effect in experiment [2] (EC50) was put at 0.094 nM.

On to `COc1ccc(Cl)cc1C(=O)/N=c1\sn(C(C)(C)C)cc1C1CCOCC1` [Example 39, N-[(5Z)-2-tert-butyl-4-tetrahydro-2H-pyran-4-ylisothiazol-5(2H)-ylidene]-5-chloro-2-methoxybenzamide], for which the Ki in experiment [1] was found to be 26 nM; in experiment [3], 99 nM. Further, the response in experiment [2] was half-maximal at 1.6 nM (EC50).

`CCCCc1cn(C(C)(C)C)s/c1=N\C(=O)NC1CCC(C)CC1` (stereo not shown) [Example 191, N-[(5Z)-4-butyl-2-tert-butylisothiazol-5(2H)-ylidene]-N′-(4-methylcyclohexyl)urea]: the Ki turned out to be 1.8 nM in experiment [1] and 15 nM in experiment [3]. For the same molecule, the EC50 in experiment [2] is 0.51 nM.

In the case of `COc1ccc(C(F)(F)F)cc1C(=O)/N=c1\sn(C(C)(C)C)cc1CCCCF` [Example 149, N-[(5Z)-2-tert-butyl-4-(4-fluorobutyl)isothiazol-5(2H)-ylidene]-2-methoxy-5-(trifluoromethyl)benzamide], the Ki is 0.15 nM in experiment [1] and 8.3 nM in experiment [3]. This molecule came in with an EC50 in experiment [2] of 0.23 nM.

In experiment [1], `COC(=O)CCCc1cn(C(C)(C)C)s/c1=N\C(=O)c1cc(C#N)ccc1OC` [Example 46, Methyl 4-{(5Z)-2-tert-butyl-5-[(5-cyano-2-methoxybenzoyl)imino]-2,5-dihydroisothiazol-4-yl}butanoate] came in with a Ki of 17 nM. Moreover, the EC50 in experiment [2] was found to be 0.56 nM.

A word on the Ki: it is a dissociation constant, usually derived from enzyme kinetics or from competition with a known ligand. Usually EC50 stands for the concentration giving half of the maximal effect. A lower EC50 goes with a more potent agent.
